From patent US8901147B2, “Bi-heteroaryl compounds as Vps34 inhibitors” (Novartis AG, priority 2010, dated 2014)

Target: recombinant human Vps34 (Homo sapiens, UniProt Q8NEB9)
Test: Vps34 KinaseGlo assay
Format: biochemical
Settings: KinaseGlo luminescence ATP detection; PI/OG substrate; 1 μM ATP; room temperature; 8 concentrations, n=2
Procedure: It was then resuspended in 3% OctylGlucoside by vortexing and stored at 4° C. 5 μL of a mix of PI/OG with recombinant human Vps34 were added. Kinase reactions were started by addition of 5 μl of ATP-mix containing in a final volume 10 μL 10 mM TRIS-HCl pH 7.5, 3 mM MgCl2, 50 mM NaCl, 0.05% CHAPS, 1 mM DTT and 1 μM ATP, and occurred at room temperature. Reactions were stopped with 10 μl of KinaseGlo and plates were read 10 minutes later in a Synergy2 reader using an integration time of 0.1 seconds per well.

recombinant human Vps34, sequence (Q8NEB9 whole entry): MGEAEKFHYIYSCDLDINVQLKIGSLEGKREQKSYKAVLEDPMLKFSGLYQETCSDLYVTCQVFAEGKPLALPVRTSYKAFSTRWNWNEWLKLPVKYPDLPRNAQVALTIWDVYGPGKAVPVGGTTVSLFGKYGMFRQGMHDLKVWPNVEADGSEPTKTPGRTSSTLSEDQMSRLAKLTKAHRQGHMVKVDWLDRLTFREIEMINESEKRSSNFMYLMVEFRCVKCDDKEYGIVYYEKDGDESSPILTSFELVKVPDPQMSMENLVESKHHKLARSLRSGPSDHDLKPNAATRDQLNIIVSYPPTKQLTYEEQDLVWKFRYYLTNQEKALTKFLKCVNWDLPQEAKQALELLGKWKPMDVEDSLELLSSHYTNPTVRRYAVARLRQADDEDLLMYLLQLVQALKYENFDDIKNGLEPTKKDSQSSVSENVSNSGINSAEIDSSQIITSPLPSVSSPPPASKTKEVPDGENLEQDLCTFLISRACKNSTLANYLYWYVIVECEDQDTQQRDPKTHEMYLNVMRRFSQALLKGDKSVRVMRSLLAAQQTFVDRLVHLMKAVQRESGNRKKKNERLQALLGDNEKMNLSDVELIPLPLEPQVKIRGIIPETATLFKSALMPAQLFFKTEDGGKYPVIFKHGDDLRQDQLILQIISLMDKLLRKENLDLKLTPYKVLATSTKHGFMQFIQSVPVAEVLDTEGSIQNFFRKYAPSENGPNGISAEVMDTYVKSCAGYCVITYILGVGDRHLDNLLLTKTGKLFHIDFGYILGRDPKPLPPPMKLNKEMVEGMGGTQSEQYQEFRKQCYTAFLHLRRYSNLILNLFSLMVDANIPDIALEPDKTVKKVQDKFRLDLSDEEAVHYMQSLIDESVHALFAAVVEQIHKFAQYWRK

Compound | IC50
CNc1ncc(-c2ccnc(NC3CCC(O)CC3)n2)c(CC2CC2)n1 (stereo not shown) [Example 14k, 4-(4′-(cyclopropylmethyl)-2′-(methylamino)-4,5′-bipyrimidin-2-ylamino)cyclohexanol] | 857 nM
CNc1ncc(-c2ccnc(Nc3cccnc3)n2)c(CC2CC2)n1 [Example 14l, 4′-(cyclopropylmethyl)-N^2′-methyl-N^2-(pyridin-3-yl)-4,5′-bipyrimidine-2,2′-diamine] | 48 nM
CNc1ncc(-c2ccnc(Nc3ccc(OC)cc3)n2)c(CC2CC2)n1 [Example 14m, 4′-(cyclopropylmethyl)-N^2-(4-methoxyphenyl)-N^2′-methyl-4,5′-bipyrimidine-2,2′-diamine] | 119 nM
CNc1ncc(-c2ccnc(N[C@H]3CC[C@H](C(=O)O)CC3)n2)c(CC2CC2)n1 [Example 14n, (1r,4r)-4-(4′-(cyclopropylmethyl)-2′-(methylamino)-4,5′-bipyrimidin-2-ylamino)cyclohexanecarboxylic acid] | 439 nM
CNc1ncc(-c2ccnc(N[C@H]3CC[C@H](OC)CC3)n2)c(CC2CC2)n1 [Example 14o, 4′-(cyclopropylmethyl)-N^2-((1r,4r)-4-methoxycyclohexyl)-N^2′-methyl-4,5′-bipyrimidine-2,2′-diamine] | 374 nM
CNc1ncc(-c2ccnc(Nc3cc(OC)cc(OC)c3)n2)c(CC2CC2)n1 [Example 14p, 4′-(cyclopropylmethyl)-N^2-(3,5-dimethoxyphenyl)-N^2′-methyl-4,5′-bipyrimidine-2,2′-diamine] | 5170 nM
CNc1ncc(-c2ccnc(Nc3ccc(OC)c(OC)c3)n2)c(CC2CC2)n1 [Example 14q, 4′-(cyclopropylmethyl)-N^2-(3,4-dimethoxyphenyl)-N^2′-methyl-4,5′-bipyrimidine-2,2′-diamine] | 862 nM
CNc1ncc(-c2ccnc(NC3CCN(C)CC3)n2)c(CC2CC2)n1 [Example 14r, 4′-(cyclopropylmethyl)-N^2′-methyl-N^2-(1-methylpiperidin-4-yl)-4,5′-bipyrimidine-2,2′-diamine] | 1540 nM
CNc1ncc(-c2ccnc(NCCCN)n2)c(CC2CC2)n1 [Example 14s, N^2-(3-aminopropyl)-4′-(cyclopropylmethyl)-N^2′-methyl-4,5′-bipyrimidine-2,2′-diamine] | 7130 nM
Cc1nc(N)ncc1-c1ccnc(Nc2ccncc2)n1 [Example 21, 4′-Methyl-N^2-pyridin-4-yl-[4,5′]bipyrimidinyl-2,2′-diamine] | 22.2 nM
Nc1ncc(-c2ccnc(Nc3ccncc3)n2)c(C(F)(F)F)n1 [Example 22, N2-(pyridin-4-yl)-4′-(trifluoromethyl)-4,5′-bipyrimidine-2,2′-diamine] | 31 nM
Nc1ncc(-c2ccnc(Nc3ccncc3)n2)c(CO)n1 [Example 23, [2′-Amino-2-(pyridin-4-ylamino)-4,5′-bipyrimidin-4′-yl]methanol] | 130 nM

Next, values leading:

IC50 | Compound
577 nM | CC(=O)N[C@H]1CC[C@H](Nc2nccc(-c3cnc(N)nc3CC3CC3)n2)CC1 [Example 15a, N-((1r,4r)-4-(2′-amino-4′-(cyclopropylmethyl)-4,5′-bipyrimidin-2-ylamino)cyclohexyl)acetamide]
199 nM | CS(=O)(=O)N[C@H]1CC[C@H](Nc2nccc(-c3cnc(N)nc3CC3CC3)n2)CC1 [Example 15b, N-((1r,4r)-4-(2′-amino-4′-(cyclopropylmethyl)-4,5′-bipyrimidin-2-ylamino)cyclohexyl)methanesulfonamide]
1500 nM | Nc1ncc(-c2ccnc(NC3CCCOC3)n2)c(CC2CC2)n1 (stereo not shown) [Example 15d, 4′-(cyclopropylmethyl)-N2-(tetrahydro-2H-pyran-3-yl)-4,5′-bipyrimidine-2,2′-diamine]
196 nM | Nc1ncc(-c2ccnc(Nc3ccccn3)n2)c(CC2CC2)n1 [Example 15e, 4′-(cyclopropylmethyl)-N^2-(pyridin-2-yl)-4,5′-bipyrimidine-2,2′-diamine]
2230 nM | CC(C)(CO)CNc1nccc(-c2cnc(N)nc2CC2CC2)n1 [Example 15g, 3-(2′-amino-4′-(cyclopropylmethyl)-4,5′-bipyrimidin-2-ylamino)-2,2-dimethylpropan-1-ol]
48 nM | Cc1cc(Nc2nccc(-c3cnc(N)nc3CC3CC3)n2)on1 [Example 15h, 4′-Cyclopropylmethyl-N^2-(3-methyl-isoxazol-5-yl)-[4,5′]bipyrimidinyl-2,2′-diamine]
924 nM | Nc1ncc(-c2ccnc(Nc3nncs3)n2)c(CC2CC2)n1 [Example 15i, 4′-(cyclopropylmethyl)-N^2-(1,3,4-thiadiazol-2-yl)-4,5′-bipyrimidine-2,2′-diamine]
53 nM | Nc1ncc(-c2ccnc(Nc3ccc(F)cc3)n2)c(CC2CC2)n1 [Example 15j, 4′-(cyclopropylmethyl)-N^2-(4-fluorophenyl)-4,5′-bipyrimidine-2,2′-diamine]
781 nM | Nc1ncc(-c2ccnc(NCc3ccco3)n2)c(CC2CC2)n1 [Example 15k, 4′-(cyclopropylmethyl)-N^2-(furan-2-ylmethyl)-4,5′-bipyrimidine-2,2′-diamine]
25 nM | Nc1ncc(-c2ccnc(Nc3ccc4[nH]ccc4c3)n2)c(CC2CC2)n1 [Example 15l, 4′-(cyclopropylmethyl)-N^2-(1H-indol-5-yl)-4,5′-bipyrimidine-2,2′-diamine]
101 nM | Nc1ncc(-c2ccnc(Nc3ccc4c(c3)OCO4)n2)c(CC2CC2)n1 [Example 15m, N^2-(benzo[d][1,3]dioxol-5-yl)-4′-(cyclopropylmethyl)-4,5′-bipyrimidine-2,2′-diamine]
62 nM | CC(=O)Nc1ccc(Nc2nccc(-c3cnc(N)nc3CC3CC3)n2)cc1 [Example 15n, N-(4-(2′-amino-4′-(cyclopropylmethyl)-4,5′-bipyrimidin-2-ylamino)phenyl)acetamide]
57 nM | Nc1ncc(-c2ccnc(Nc3ccc(Cl)cc3)n2)c(CC2CC2)n1 [Example 15o, N^2-(4-chlorophenyl)-4′-(cyclopropylmethyl)-4,5′-bipyrimidine-2,2′-diamine]
122 nM | Nc1ncc(-c2ccnc(NCCc3c[nH]c4ccccc34)n2)c(CC2CC2)n1 [Example 15p, N^2-(2-(1H-indol-3-yl)ethyl)-4′-(cyclopropylmethyl)-4,5′-bipyrimidine-2,2′-diamine]
1290 nM | Nc1ncc(-c2ccnc(NCc3cccnc3)n2)c(CC2CC2)n1 [Example 15q]
1660 nM | Nc1ncc(-c2ccnc(NCCN3CCOCC3)n2)c(CC2CC2)n1 [Example 15s, 4′-(cyclopropylmethyl)-N^2-(2-morpholinoethyl)-4,5′-bipyrimidine-2,2′-diamine]
187 nM | Nc1ncc(-c2ccnc(NCCc3c[nH]cn3)n2)c(CC2CC2)n1 [Example 15t, N^2-(2-(1H-imidazol-4-yl)ethyl)-4′-(cyclopropylmethyl)-4,5′-bipyrimidine-2,2′-diamine]
104 nM | Nc1ccc(Nc2nccc(-c3cnc(N)nc3CC3CC3)n2)cc1 [Example 15u, N^2-(4-aminophenyl)-4′-(cyclopropylmethyl)-4,5′-bipyrimidine-2,2′-diamine]
193 nM | Nc1ncc(-c2ccnc(Nc3ccc(Cl)cn3)n2)c(CC2CC2)n1 [Example 15v, N^2-(5-chloropyridin-2-yl)-4′-(cyclopropylmethyl)-4,5′-bipyrimidine-2,2′-diamine]
36 nM | Cc1cc2cc(Nc3nccc(-c4cnc(N)nc4CC4CC4)n3)ccc2[nH]1 [Example 15w, 4′-(cyclopropylmethyl)-N^2-(2-methyl-1H-indol-5-yl)-4,5′-bipyrimidine-2,2′-diamine]
27 nM | N#Cc1ccc(Nc2nccc(-c3cnc(N)nc3CC3CC3)n2)cc1 [Example 15x, 4-(2′-amino-4′-(cyclopropylmethyl)-4,5′-bipyrimidin-2-ylamino)benzonitrile]
231 nM | CN(C)c1cccc(Nc2nccc(-c3cnc(N)nc3CC3CC3)n2)c1 [Example 15y, 4′-(cyclopropylmethyl)-N^2-(3-(dimethylamino)phenyl)-4,5′-bipyrimidine-2,2′-diamine]
25 nM | CC(C)(O)CNc1ncc(-c2ccnc(Nc3ccc(C#N)cc3)n2)c(CC2CC2)n1 [Example 16b, 4-(4′-(cyclopropylmethyl)-2′-(2-hydroxy-2-methylpropylamino)-4,5′-bipyrimidin-2-ylamino)benzonitrile]
150 nM | CC(C)(O)CNc1ncc(-c2ccnc(Nc3ccc(F)cc3)n2)c(CC2CC2)n1 [Example 16c, 1-(4′-(cyclopropylmethyl)-2-(4-fluorophenylamino)-4,5′-bipyrimidin-2′-ylamino)-2-methylpropan-2-ol]
26 nM | CC(C)(O)CNc1ncc(-c2ccnc(Nc3ccc(S(C)(=O)=O)cc3)n2)c(CC2CC2)n1 [Example 16d, 1-(4′-(cyclopropylmethyl)-2-(4-(methylsulfonyl)phenylamino)-4,5′-bipyrimidin-2′-ylamino)-2-methylpropan-2-ol]
105 nM | CC(C)(O)CNc1ncc(-c2ccnc(Nc3ccc(Cl)cc3)n2)c(CC2CC2)n1 [Example 16e, 1-(2-(4-chlorophenylamino)-4′-(cyclopropylmethyl)-4,5′-bipyrimidin-2′-ylamino)-2-methylpropan-2-ol]
138 nM | CC(=O)Nc1ccc(Nc2nccc(-c3cnc(NCC(C)(C)O)nc3CC3CC3)n2)cc1 [Example 16f, N-(4-(4′-(cyclopropylmethyl)-2′-(2-hydroxy-2-methylpropylamino)-4,5′-bipyrimidin-2-ylamino)phenyl)acetamide]
872 nM | CC(C)(O)CNc1ncc(-c2ccnc(N[C@H]3CC[C@H](NS(C)(=O)=O)CC3)n2)c(CC2CC2)n1 [Example 16g, N-((1r,4r)-4-(4′-(cyclopropylmethyl)-2′-(2-hydroxy-2-methylpropylamino)-4,5′-bipyrimidin-2-ylamino)cyclohexyl)methanesulfonamide]
